Results from patent US8759343B2 (priority 2007, dated 2014).

| SMILES | melting point [°C] |
| --- | --- |
| c1ccc2oc(-c3ccc(C45CCCN(CCC4)C5)cn3)cc2c1 | 152 to 154 |
| Fc1ccc(-c2ccc(C34CCCN(CCC3)C4)cn2)cn1 | 121 to 122 |
| c1cc(-c2ccc(C34CCN(CC3)C4)cn2)ccn1 | 254 to 256 |
| c1cc(-c2ccc(C34CCN(CC3)C4)cn2)c2cccnc2c1 | 129 to 131 |
| COc1cccc(-c2ccc(C34CCN(CC3)C4)cn2)c1 | 87 to 89 |
| c1ccc2sc(-c3ccc(C45CCN(CC4)C5)cn3)cc2c1 | 202 to 203 |
| c1cc(-c2ccc(C34CCN(CC3)C4)cn2)co1 | 279 to 281 |
| c1ccc2ncc(-c3ccc(C45CCN(CC4)C5)cn3)cc2c1 | 267 to 268 |
| c1ccc2sc(-c3ccc(C45CCCN(CCC4)C5)cn3)cc2c1 | 176 to 178 |
| COc1cc(F)ccc1-c1ccc(C23CCN(CC2)C3)cn1 | 169 to 170 |
| c1ccc2c(c1)oc1c(-c3ccc(C45CCCN(CCC4)C5)cn3)cccc12 | 142 to 144 |
| c1cc2c(cc1-c1ccc(C34CCCN(CCC3)C4)cn1)OCO2 | 124 to 126 |
| c1cnc2ccc(-c3ccc(C45CCCN(CCC4)C5)cn3)cc2c1 | 151 to 153 |
| Cn1ccc2cc(-c3ccc(C45CCCN(CCC4)C5)cn3)ccc21 | 166 to 168 |
| c1ncc(-c2ccc(C34CCN(CC3)C4)cn2)cn1 | 244 to 246 |
| COc1ncc(-c2ccc(C34CCN(CC3)C4)cn2)c(OC)n1 | 104 to 106 |
| c1ccc(-c2ccc(-c3ccc(C45CCCN(CCC4)C5)cn3)cc2)cc1 | 146 to 148 |
| c1cc(-c2ccc(C34CCCN(CCC3)C4)cn2)co1 | 335 to 337 |
| c1cncc(-c2ccc(C34CCCN(CCC3)C4)cn2)c1 | 118 to 120 |
| COc1cc(F)ccc1-c1ccc(C23CCCN(CCC2)C3)cn1 | 148 to 150 |

| SMILES | melting point [°C] |
| --- | --- |
| c1ccc2ncc(-c3ccc(C45CCCN(CCC4)C5)cn3)cc2c1 | 160 to 162 |
| c1ccc(-c2ccc(-c3ccc(C45CCN(CC4)C5)cn3)cc2)cc1 | 191 to 192 |
| c1nc(N2CCOCC2)ncc1-c1ccc(C23CCN(CC2)C3)cn1 | 226 to 227 |
| COc1cccc(-c2ccc(C34CCN(CC3)C4)cn2)c1F | 144 to 146 |
| COc1ccc(-c2ccc(C34CCCN(CCC3)C4)cn2)cc1F | 138 to 140 |
| c1cc(-c2ccc(C34CCCN(CCC3)C4)cn2)cc(-n2cccn2)c1 | 135 to 137 |
| c1csc(-c2ccc(C34CCN(CC3)C4)cn2)n1 | 127 to 129 |
| c1ncc(-c2ccc(C34CCCN(CCC3)C4)cn2)cn1 | 139 to 141 |
| c1nc(N2CCOCC2)ncc1-c1ccc(C23CCCN(CCC2)C3)cn1 | 189 to 191 |
| COc1ncc(-c2ccc(C34CCCN(CCC3)C4)cn2)c(OC)n1 | 81 to 83 |
| c1cc2nonc2cc1-c1ccc(C23CCCN(CCC2)C3)cn1 | 151 to 153 |
| COc1ccc(OC)c(-c2ccc(C34CCCN(CCC3)C4)cn2)c1 | 101 to 103 |
| c1cc(N2CCCC2)ncc1-c1ccc(C23CCCN(CCC2)C3)cn1 | 301 to 303 |
| c1ccc2c(-c3ccc(C45CCN(CC4)C5)cn3)cncc2c1 | 143 to 145 |
| c1cc(-c2ccc(C34CCN(CC3)C4)cn2)c2ccncc2c1 | 176 to 178 |
| c1ccc(-c2ccc(C34CCN(CC3)C4)cn2)cc1 | 126 to 128 |
| FC(F)(F)c1cc(-c2ccc(C34CCN(CC3)C4)cn2)cc(C(F)(F)F)c1 | 117 to 119 |
| c1ccc2oc(-c3ccc(C45CCN(CC4)C5)cn3)cc2c1 | 164 to 165 |
| Fc1ccc(-c2ccc(C34CCN(CC3)C4)cn2)cn1 | 108 to 109 |

Second part, the compound after the results:

| melting point [°C] | SMILES |
| --- | --- |
| 163 to 165 | c1ccc2cc(-c3ccc(C45CCCN(CCC4)C5)cn3)ccc2c1 |
| 116 to 117 | Fc1ncccc1-c1ccc(C23CCN(CC2)C3)cn1 |
| 147 to 149 | c1cc(-c2ccc(C34CCCN(CCC3)C4)cn2)c2cccnc2c1 |
| 144 | Fc1cc(-c2ccc(C34CCCN(CCC3)C4)cn2)ccc1-c1ccccc1 |
| 95 to 98 | CC(=O)c1cccc(-c2ccc(C34CCN(CC3)C4)cn2)c1 |
| 134 to 136 | Cc1ccc(-c2ccc(C34CCN(CC3)C4)cn2)cc1 |
| 153 to 155 | Fc1cc(-c2ccc(C34CCN(CC3)C4)cn2)ccc1-c1ccccc1 |
| 85 to 87 | Fc1ccc(-c2ccc(C34CCN(CC3)C4)cn2)cc1F |
| 102 to 104 | Fc1cccc(-c2ccc(C34CCCN(CCC3)C4)cn2)c1 |
| 158 to 160 | c1ccc2c(c1)oc1c(-c3ccc(C45CCN(CC4)C5)cn3)cccc12 |
| 228 to 229 | c1cncc(-c2ccc(C34CCN(CC3)C4)cn2)c1 |
| 75 to 76 | FC(F)(F)Oc1ccc(-c2ccc(C34CCN(CC3)C4)cn2)cc1 |
| 152 to 154 | c1cc(-c2ccc(C34CCCN(CCC3)C4)cn2)c[nH]1 |
| 107 to 109 | Fc1ccc(-c2ccc(C34CCCN(CCC3)C4)cn2)cc1 |
| 120 to 122 | FC(F)(F)Oc1ccc(-c2ccc(C34CCCN(CCC3)C4)cn2)cc1 |
| 176 to 178 | c1cnc2c(-c3ccc(C45CCN(CC4)C5)cn3)cccc2c1 |
| 138 to 139 | COc1ccc(-c2ccc(C34CCCN(CCC3)C4)cn2)cc1 |
| 139 to 140 | c1cc2nonc2cc1-c1ccc(C23CCN(CC2)C3)cn1 |

| melting point [°C] | SMILES |
| --- | --- |
| 95 to 97 | COc1cc(F)cc(-c2ccc(C34CCN(CC3)C4)cn2)c1 |
| 144 to 146 | COc1cccc(-c2ccc(C34CCCN(CCC3)C4)cn2)c1F |
| 105 to 107 | Cn1cccc1-c1ccc(C23CCCN(CCC2)C3)cn1 |
| 167 to 169 | c1ccc2c(-c3ccc(C45CCCN(CCC4)C5)cn3)cccc2c1 |
| 103 to 105 | c1ccc(-c2ccc(C34CCCN(CCC3)C4)cn2)cc1 |
| 135 to 137 | FC(F)(F)c1ccc(-c2ccc(C34CCCN(CCC3)C4)cn2)cc1 |
| 134 to 136 | COc1ccncc1-c1ccc(C23CCCN(CCC2)C3)cn1 |
| 124 to 126 | c1csc(-c2ccc(C34CCCN(CCC3)C4)cn2)n1 |
| 129 to 131 | c1ccc(Oc2ccc(-c3ccc(C45CCCN(CCC4)C5)cn3)cc2)cc1 |
| 117 to 119 | Fc1ccccc1-c1ccc(C23CCCN(CCC2)C3)cn1 |
| 202 to 204 | CC(C)(C)OC(=O)N1CCN(c2ccc(-c3ccc(C45CCCN(CCC4)C5)cn3)cn2)CC1 |
| 97 to 99 | COc1ccncc1-c1ccc(C23CCN(CC2)C3)cn1 |
| 216 to 218 | CC(C)(C)OC(=O)N1CCN(c2ccc(-c3ccc(C45CCN(CC4)C5)cn3)cn2)CC1 |
| 98 to 99 | Fc1ncccc1-c1ccc(C23CCCN(CCC2)C3)cn1 |
| 110 to 112 | Fc1ccccc1-c1ccc(C23CCN(CC2)C3)cn1 |
| 160 to 162 | COc1ccc(-c2ccc(C34CCN(CC3)C4)cn2)cc1 |
| 154 to 156 | c1ccc2cc(-c3ccc(C45CCN(CC4)C5)cn3)ccc2c1 |
| 141 to 143 | c1ccc(Oc2ccc(-c3ccc(C45CCN(CC4)C5)cn3)cc2)cc1 |
